The text below walks through data of patent US11787802B2, “Dihydrobenzimidazolones for medical treatment” (C4 Therapeutics, Inc., priority 2017, dated 2023).

Counter-ions that a name gives are not always drawn.

hCereblon(M1-L442)_hDDB1(M1-H1140), sequence (Q96SW2 whole entry): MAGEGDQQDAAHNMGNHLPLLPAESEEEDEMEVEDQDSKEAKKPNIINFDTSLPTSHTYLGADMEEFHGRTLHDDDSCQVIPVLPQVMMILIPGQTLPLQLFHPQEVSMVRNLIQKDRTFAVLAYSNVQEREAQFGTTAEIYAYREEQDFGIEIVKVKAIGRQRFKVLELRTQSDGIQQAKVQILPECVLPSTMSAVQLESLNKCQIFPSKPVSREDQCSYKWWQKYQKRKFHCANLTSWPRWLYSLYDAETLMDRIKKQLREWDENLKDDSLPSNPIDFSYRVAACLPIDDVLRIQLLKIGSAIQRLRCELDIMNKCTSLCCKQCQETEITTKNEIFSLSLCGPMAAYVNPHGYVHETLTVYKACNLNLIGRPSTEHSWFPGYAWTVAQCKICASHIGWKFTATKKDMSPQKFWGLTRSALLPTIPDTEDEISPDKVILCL
hCereblon(M1-L442)_hDDB1(M1-H1140), sequence (Q16531 whole entry partner): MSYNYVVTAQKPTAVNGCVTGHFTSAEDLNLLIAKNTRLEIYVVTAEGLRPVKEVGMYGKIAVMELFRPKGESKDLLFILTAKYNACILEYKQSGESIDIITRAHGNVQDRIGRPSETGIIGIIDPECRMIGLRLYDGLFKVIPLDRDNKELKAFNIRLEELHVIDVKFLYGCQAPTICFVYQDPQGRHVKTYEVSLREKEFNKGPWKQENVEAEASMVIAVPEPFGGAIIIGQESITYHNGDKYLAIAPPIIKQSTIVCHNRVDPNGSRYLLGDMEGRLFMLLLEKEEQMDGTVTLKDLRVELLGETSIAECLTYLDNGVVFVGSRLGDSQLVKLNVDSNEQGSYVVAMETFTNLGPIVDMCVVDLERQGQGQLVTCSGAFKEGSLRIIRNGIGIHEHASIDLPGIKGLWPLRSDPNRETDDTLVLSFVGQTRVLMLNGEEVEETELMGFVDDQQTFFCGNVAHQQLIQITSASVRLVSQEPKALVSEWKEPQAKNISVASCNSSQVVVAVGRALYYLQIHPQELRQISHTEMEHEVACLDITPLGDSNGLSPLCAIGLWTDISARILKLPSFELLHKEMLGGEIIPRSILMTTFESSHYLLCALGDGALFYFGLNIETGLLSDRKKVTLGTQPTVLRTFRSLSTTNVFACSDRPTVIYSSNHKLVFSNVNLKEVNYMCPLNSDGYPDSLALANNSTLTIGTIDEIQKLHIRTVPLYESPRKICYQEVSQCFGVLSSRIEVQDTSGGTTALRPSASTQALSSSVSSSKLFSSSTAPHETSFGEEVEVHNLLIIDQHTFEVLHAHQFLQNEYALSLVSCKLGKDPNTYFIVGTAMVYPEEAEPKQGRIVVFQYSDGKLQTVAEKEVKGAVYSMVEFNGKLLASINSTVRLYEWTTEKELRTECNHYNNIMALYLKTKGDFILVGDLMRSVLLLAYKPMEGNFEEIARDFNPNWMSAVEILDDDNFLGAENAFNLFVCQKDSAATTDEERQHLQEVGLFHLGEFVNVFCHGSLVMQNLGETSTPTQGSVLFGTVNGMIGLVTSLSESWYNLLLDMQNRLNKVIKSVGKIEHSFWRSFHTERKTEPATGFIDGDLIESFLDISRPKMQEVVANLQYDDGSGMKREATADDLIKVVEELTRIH

The assay addresses hCereblon(M1-L442)_hDDB1(M1-H1140) (Homo sapiens (Human), UniProt Q96SW2). The experiment in a line: Fluorescence direct binding protocol (tryptophan fluorescence titration). Conditions: fluorescence titration at 20° C., excited at 280 nm, recorded at 340 nm; protein 5.0 E−8 M; assay buffer 50 mM Hepes 7.4 200 mM NaCl; read-out: Fluorescence h-Cereblon_DDB1 Mean Kd_EQ. The protocol:
Fluorescence Direct Binding Protocol
Determination of the affinities of compounds to protein containing one or more tryptophan is measurable by monitoring the fluorescence emission in direct mode. The measurements depending on the protein available amounts are performed either manually in a cuvette on ISS-PC1 photon counting spectrofluorometer or automatically in well plates on a fluorescence plate reader device. Fluorescence titrations are performed at 20° C. in the chosen binding assay buffer by using a defined constant protein concentration against ligand concentration variations. Small aliquots of known ligand concentration solubilized in DMSO were added and the fluorescence, excited at 280 nm, was recorded at 340 nm. The fluorescence intensity was corrected for protein dilution and for the filter effect (Birdsall et al.^69). The corrected fluorescence intensity was plotted against the ligand concentration and fitted using a four-parameter sigmoidal function, from which the equilibrium dissociation constant Kd was computed using the law of mass action assuming a 1:1 protein-ligand complex (Eftink, 1997^70).
Process • 1) Optimization of measurement parameters to minimize protein consumption and to minimize the dilution effect and the DMSO content • 2) Titration measurements of the protein against ligand by at least 12 titration steps to obtain a good s-curve fit • 3) Repeat the same titration measurements with the ligand alone to enable correction • 4) Check the stability of the protein once by titration against DMSO alone • 5) Determination of the molar extinction coefficients of the ligand at 280 and 340 nm with help of an UV-spectrophotometer • 6) Use Excel template for the correction of the measured raw data • 7) Use GraphPad Prism software for the quadratic binding fit and the KD evaluation.
On to `CNC(=O)c1ccc2c(c1)nc(C(C)(C)C)n2-c1ccc2[nH]c(=O)[nH]c2c1` [Example 46, 2-(tert-Butyl)-N-methyl-2′-oxo-2′,3′-dihydro-1′H-[1,5′-bibenzo[d]imidazole]-5-carboxamide], for which the Kd came to 10 nM.

`CC(=O)Nc1ccc(NCc2ccc3[nH]c(=O)[nH]c3c2)cc1` [Example 146, N-(4-(((2-Oxo-2,3-dihydro-1H-benzo[d]imidazol-5-yl)methyl)amino)phenyl)acetamide]: the Kd came out at 18 nM.

Consider `CC(C)c1nc2cc(OCc3ccccc3)ccc2n1-c1ccc2[nH]c(=O)[nH]c2c1` [Example 120, 5-(Benzyloxy)-2-isopropyl-1′,3′-dihydro-2′H-[1,5′-bibenzo[d]imidazol]-2′-one], for which the Kd turned out to be 194 nM.

On to `COC(=O)c1nc2ccccc2n1-c1ccc2[nH]c(=O)[nH]c2c1` [Example 82, Methyl 1-(2-oxo-1,3-dihydrobenzimidazol-5-yl)benzimidazole-2-carboxylate], for which the Kd came to 3 nM.

As for `O=C(Nc1ccc2[nH]c(=O)[nH]c2c1)N1CCc2ccccc21` [Example 105, N-(2-Oxo-2,3-dihydro-1H-benzo[d]imidazol-5-yl)indoline-1-carboxamide], the Kd worked out at 4 nM.

Regarding `CNC(=O)c1ccc2c(c1)nc(C1(c3ccc(OC)cc3)CC1)n2-c1ccc2[nH]c(=O)[nH]c2c1` [Example 115, 2-(1-(4-Methoxyphenyl)cyclopropyl)-N-methyl-2′-oxo-2′,3′-dihydro-1′H-[1,5′-bibenzo[d]imidazole]-5-carboxamide], the Kd was 96 nM.

Regarding `CC(C)(C)OC(=O)Nc1ccc2c(c1)CCN2C(=O)Nc1ccc2[nH]c(=O)[nH]c2c1` [Example 119, tert-Butyl (1-((2-oxo-2,3-dihydro-1H-benzo[d]imidazol-5-yl)carbamoyl)indolin-5-yl)carbamate], the Kd is 113 nM.

For `Cc1ncc(-c2ccc3[nH]c(=O)[nH]c3c2)s1` [Example 21, 5-(2-Methylthiazol-5-yl)-1H-benzo[d]imidazol-2(3H)-one], the Kd came to 5 nM.

On to `COc1cccc(-c2ncccc2C(=O)Nc2ccc3[nH]c(=O)[nH]c3c2)c1` [Example 138, 2-(3-Methoxyphenyl)-N-(2-oxo-2,3-dihydro-1H-benzo[d]imidazol-5-yl)nicotinamide], for which the Kd is 109 nM.

Regarding `CNC(=O)c1ccc2nc(C(C)C)n(-c3ccc4[nH]c(=O)[nH]c4c3)c2c1` [Example 30, 2-Isopropyl-N-methyl-2′-oxo-2′,3′-dihydro-1′H-[1,5′-bibenzo[d]imidazole]-6-carboxamide], the Kd came to 1 nM.

As for `COC(=O)c1ccc2nc(C(C)C)n(-c3ccc4[nH]c(=O)[nH]c4c3)c2c1` [Example 48, Methyl 2-isopropyl-2′-oxo-2′,3′-dihydro-1′H-[1,5′-bibenzo[d]imidazole]-6-carboxylate], the Kd was determined as 11 nM.

For the molecule `CC(=O)N1CCC(NC(=O)c2ccc3[nH]c(=O)[nH]c3c2)CC1` [Example 23, N-(1-Acetylpiperidin-4-yl)-2-oxo-2,3-dihydro-1H-benzo[d]imidazole-5-carboxamide], the Kd was 3 nM.

Regarding `CNC(=O)c1ccc2c(c1)nc(-c1cccc(COC)c1)n2-c1ccc2[nH]c(=O)[nH]c2c1` [Example 57, 2-(3-(Methoxymethyl)phenyl)-N-methyl-2′-oxo-2′,3′-dihydro-1′H-[1,5′-bibenzo[d]imidazole]-5-carboxamide], the Kd worked out at 7 nM.

Regarding `CNC(=O)c1ccc2c(c1)nc(C1CCC(OC)CC1)n2-c1ccc2[nH]c(=O)[nH]c2c1` (stereo not drawn) [Example 131, 2-(4-Methoxycyclohexyl)-N-methyl-2′-oxo-2′,3′-dihydro-1′H-[1,5′-bibenzo[d]imidazole]-5-carboxamide], the Kd turned out to be 10 nM.

With `Nc1ccc2c(c1)CCN2C(=O)Nc1ccc2[nH]c(=O)[nH]c2c1` [Example 121, 5-Amino-N-(2-oxo-2,3-dihydro-1H-benzo[d]imidazol-5-yl)indoline-1-carboxamide], the Kd turned out to be 65 nM.

Regarding `CNC(=O)c1ccc(Oc2ccc3[nH]c(=O)[nH]c3c2)cc1` [Example 156, N-Methyl-4-((2-oxo-2,3-dihydro-1H-benzo[d]imidazol-5-yl)oxy)benzamide], the Kd was 22 nM.

`COc1ccccc1N1CCN(C(=O)Nc2ccc3[nH]c(=O)[nH]c3c2)CC1` [Example 128, 4-(2-Methoxyphenyl)-N-(2-oxo-2,3-dihydro-1H-benzo[d]imidazol-5-yl)piperazine-1-carboxamide]: the Kd came to 14 nM.

For the molecule `CCc1nc2cc(C(=O)NC)ccc2n1-c1ccc2[nH]c(=O)[nH]c2c1` [Example 4, 2-Ethyl-N-methyl-2′-oxo-2′,3′-dihydro-1′H-[1,5′-bibenzo[d]imidazole]-5-carboxamide], the Kd turned out to be 36 nM.

For the molecule `Cn1c(=O)[nH]c2cc(Nc3ccccc3N)ccc21` [Example 53, 5-((2-Aminophenyl)amino)-1-methyl-1,3-dihydro-2H-benzo[d]imidazol-2-one], the Kd worked out at 49 nM.

Regarding `O=C(Nc1ccc(Nc2ccccc2)cc1)Nc1ccc2[nH]c(=O)[nH]c2c1` [Example 87, 1-(2-Oxo-2,3-dihydro-1H-benzo[d]imidazol-5-yl)-3-(4-(phenylamino)phenyl)urea], the Kd stood at 27 nM.

Regarding `Nc1ccc2c(c1)CCN2c1ccc2[nH]c(=O)[nH]c2c1` [Example 140, 5-(5-Aminoindolin-1-yl)-1,3-dihydro-2H-benzo[d]imidazol-2-one hydrochloride], the Kd was determined as 168 nM.

With `Cn1c(=O)n(C)c2cc(Nc3ccccc3[N+](=O)[O-])ccc21` [Example 49, 1,3-Dimethyl-5-((2-nitrophenyl)amino)-1,3-dihydro-2H-benzo[d]imidazol-2-one], the Kd turned out to be 23 nM.

On to `CN(C(=O)c1cnc2[nH]c(=O)[nH]c2c1)c1ccccc1` [Example 76, N-Methyl-2-oxo-N-phenyl-2,3-dihydro-1H-imidazo[4,5-b]pyridine-6-carboxamide], for which the Kd came out at 41 nM.

Consider `COC(=O)c1ccc2c(c1)CN(c1ccc3[nH]c(=O)[nH]c3c1)C2=O` [Example 112, Methyl 1-oxo-2-(2-oxo-1,3-dihydrobenzimidazol-5-yl)isoindoline-5-carboxylate], for which the Kd amounted to 57 nM.

Turning to `O=c1[nH]c2ccc(-c3cc(F)ccc3F)cc2[nH]1` [Example 37, 5-(2,5-Difluoro-phenyl)-1,3-dihydro-benzoimidazol-2-one], the Kd worked out at 10 nM.

Consider `O=C(Nc1cccc(F)c1)Nc1ccc2[nH]c(=O)[nH]c2c1` [Example 127, 1-(3-Fluorophenyl)-3-(2-oxo-2,3-dihydro-1H-benzo[d]imidazol-5-yl)urea], for which the Kd turned out to be 26 nM.

Turning to `COC(=O)c1ccc(Nc2ccc3[nH]c(=O)[nH]c3c2)c(N)c1` [Example 9, Methyl 3-amino-4-((2-oxo-2,3-dihydro-1H-benzo[d]imidazol-5-yl)amino)benzoate], the Kd is 29 nM.

Consider `NS(=O)(=O)c1ccc(CC(=O)Nc2ccc3[nH]c(=O)[nH]c3c2)cc1` [Example 99, N-(2-Oxo-2,3-dihydro-1H-benzo[d]imidazol-5-yl)-2-(4-sulfamoylphenyl)acetamide], for which the Kd was found to be 46 nM.

As for `Cn1cncc1-c1cc(-c2nc3ccccc3n2-c2ccc3[nH]c(=O)[nH]c3c2)c2ccccc2n1` [Example 8, 2-(2-(1-Methyl-1H-imidazol-5-yl)quinolin-4-yl)-1′H-[1,5′-bibenzo[d]imidazol]-2′(3′H)-one], the Kd is 6 nM.

Take `O=C(c1ccc2[nH]c(=O)[nH]c2c1)N1CCCc2ccccc21` [Example 97, 5-(1,2,3,4-Tetrahydroquinoline-1-carbonyl)-1,3-dihydro-2H-benzo[d]imidazol-2-one]: the Kd amounted to 9 nM.

Take `CC(=O)NCCc1nc2ccccc2n1-c1ccc2[nH]c(=O)[nH]c2c1` [Example 80, N-[2-[1-(2-Oxo-1,3-dihydrobenzimidazol-5-yl)benzimidazol-2-yl]ethyl]acetamide]: the Kd is 15 nM.

Consider `COC(=O)c1ccc2c(c1)CCN2C(=O)Nc1ccc2[nH]c(=O)[nH]c2c1` [Example 92, Methyl 1-((2-oxo-2,3-dihydro-1H-benzo[d]imidazol-5-yl)carbamoyl)indoline-5-carboxylate], for which the Kd is 33 nM.

For the molecule `CNC(=O)c1ccc2c(c1)nc(-c1ccncc1)n2-c1ccc2[nH]c(=O)[nH]c2c1` [Example 11, N-Methyl-2′-oxo-2-(pyridin-4-yl)-2′,3′-dihydro-1′H-[1,5′-bibenzo[d]imidazole]-5-carboxamide], the Kd is 8 nM.

For `O=c1[nH]c2ccc(S(=O)(=O)N3CCc4ccccc43)cc2[nH]1` [Example 116, 5-(Indolin-1-ylsulfonyl)-1,3-dihydro-2H-benzo[d]imidazol-2-one], the Kd is 48 nM.

On to `CNC(=O)c1ccccc1NC(=O)c1ccc2[nH]c(=O)[nH]c2c1` [Example 147, N-(2-(Methylcarbamoyl)phenyl)-2-oxo-2,3-dihydro-1H-benzo[d]imidazole-5-carboxamide], for which the Kd stood at 338 nM.

For the molecule `CC(C)(C)OC(=O)N1CCc2c(C(=O)Nc3ccc4[nH]c(=O)[nH]c4c3)cccc21` [Example 143, tert-Butyl 4-((2-oxo-2,3-dihydro-1H-benzo[d]imidazol-5-yl)carbamoyl)indoline-1-carboxylate], the Kd came to 159 nM.
